Legend:
aminopeptidase B = target: T1, aminopeptidase B (Rattus norvegicus, UniProt O09175); settings: Journal of Medicinal Chemistry Vol. 20, No.4, pp. 510-515 (1977); cited from earlier work
T1 sequence (O09175 1-650): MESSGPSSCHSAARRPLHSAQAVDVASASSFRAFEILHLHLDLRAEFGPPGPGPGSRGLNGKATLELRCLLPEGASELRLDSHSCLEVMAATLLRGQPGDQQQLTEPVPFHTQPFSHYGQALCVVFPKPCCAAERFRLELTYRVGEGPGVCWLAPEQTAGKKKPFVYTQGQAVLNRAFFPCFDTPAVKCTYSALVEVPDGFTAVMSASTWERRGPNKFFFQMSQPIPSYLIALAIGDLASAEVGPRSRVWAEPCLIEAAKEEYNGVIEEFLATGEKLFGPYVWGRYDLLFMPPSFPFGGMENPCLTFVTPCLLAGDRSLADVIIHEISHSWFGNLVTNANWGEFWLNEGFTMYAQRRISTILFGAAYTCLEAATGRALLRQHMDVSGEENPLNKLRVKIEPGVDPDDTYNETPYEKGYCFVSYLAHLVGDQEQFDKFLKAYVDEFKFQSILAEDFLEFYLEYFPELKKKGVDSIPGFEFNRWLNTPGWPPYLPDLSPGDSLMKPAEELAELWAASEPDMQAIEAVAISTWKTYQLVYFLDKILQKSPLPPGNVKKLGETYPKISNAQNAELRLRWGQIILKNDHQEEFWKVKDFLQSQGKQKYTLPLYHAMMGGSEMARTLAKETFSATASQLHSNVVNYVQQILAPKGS

[1] = system: D.T.H. response in mice immunized with SRBC as antigen; experiment: D.T.H. footpad test in mice immunized with SRBC, Examples 3-6 (dosages per mouse); format: in vivo; settings: for Degree of swelling: control = 100; for Degree of swelling, Intraperitoneal injection / Degree of swelling, Oral administration: Table 5
Procedure: The effect of (2S,3R)-AHPA on cell-mediated immunity was tested in the same way in Example 2, namely according to the D.T.H. technique using mice immunized with sheep red blood cell as antigen. Thus, a suspension of 10^8 sheep red blood cells in 0.05 ml of physiological saline were subcutaneously injected at the time of immunization into the right hind footpad of each CDF1 -mouse under test (female, 8 weeks-aged, 5 mice in each group) to establish D.T.H. […] The degree of swelling was evaluated. By way of comparison, bestatin was tested in the same way as above. […] The effect of (2S,3R)-AHPA on the D.T.H. response was estimated in the same manner as in the above procedure (A) of Example 3 by orally administering 1 mcg/mouse, 0.1 mcg/mouse or 0.01 mcg/mouse of (2S,3R)-AHPA to each mouse under test. […] The effect of the mode of administering (2S,3R)-AHPA on the D.T.H. response was estimated in the same manner as in the procedure (A) of Example 3, except that the test compound (as aqueous solution) was injected intraperitoneally in stead of being given orally.

ICR-strain mice = experiment: acute toxicity, intraperitoneal, ICR-strain mice; format: in vivo, mouse; settings: dosage of 100 mg/kg
Source text: In order to estimate the acute toxicity of the compound of the formula (VIII) or (IIId), some of the test compound was intraperitoneally given to ICR-strain mice (in groups each consisting of 6 mice, male, 5 weeks-aged, average body weight 20 g.), when all the tested mice tolerated intraperitoneal administration of (2S,3R)-APHA; (2S)-2-N-[(2'S,3'R)-3'-amino-2'-hydroxy-4'-phenyl-butanoyl]amino-4-methyl- pentanol; (2S)-2-N-[(2'S,3'R)-3'-amino-2'-hydroxy-4'-phenylbutanoyl-(S)-leucyl]amino-4-methyl-pentanol; (2S,3R)-3-amino-2-hydroxy-4-phenylbutanoyl-(S)-leucyl-(S)-leucine; (2S,3R)-3-amino-2-hydroxy-4-phenyl-butanoyl-(S)-leucyl-(S)-arginine; (2S,3R)-3-amino-2-hydroxy-4-phenylbutanoyl-(S)-leucyl-(S)-asparagine; (2R,3R)-3-amino-2-hydroxy-4-phenylbutanoyl-(S)-leucyl-(R)-asparagine; and (2S,3R)-3-amino-2-hydroxy-4-phenylbutanoyl-(S)-leucyl-(R)-arginine at a dosage of 100 mg/kg.

## N[C@H](Cc1ccccc1)[C@H](O)C(=O)O [(2S,3R)-AHPA]
Aminopeptidase B
  inhibitory activity to aminopeptidase B: weak inhibitory activity
[1]; Table 3, oral 0.01 mcg/mouse
  Increase in thickness of footpad (± S.D.): 10.6 ± 1.17 × 0.1 mm
  Degree of swelling: 134%
[1]; Table 3, oral 0.1 mcg/mouse
  Increase in thickness of footpad (± S.D.): 11.6 ± 1.85 × 0.1 mm
  Degree of swelling: 147%
[1]; Table 3, oral 1 mcg/mouse
  Increase in thickness of footpad (± S.D.): 11.9 ± 0.97 × 0.1 mm
  Degree of swelling: 151%
[1]; Table 3, oral 10 mcg/mouse
  Increase in thickness of footpad (± S.D.): 10.9 ± 0.57 × 0.1 mm
  Degree of swelling: 138%
[1]; Table 4, oral 0.01 mcg/mouse
  Increase in thickness of footpad (± S.D.): 10.1 ± 1.52 × 0.1 mm
  Degree of swelling: 125%
[1]; Table 4, oral 0.1 mcg/mouse
  Increase in thickness of footpad (± S.D.): 11.1 ± 0.82 × 0.1 mm
  Degree of swelling: 137%
[1]; Table 4, oral 1 mcg/mouse
  Increase in thickness of footpad (± S.D.): 10.8 ± 1.29 × 0.1 mm
  Degree of swelling: 133%
[1]; intraperitoneal 1 mcg/mouse
  Degree of swelling, Intraperitoneal injection: 143%
[1]; intraperitoneal 10 mcg/mouse
  Degree of swelling, Intraperitoneal injection: 128%
[1]; oral 1 mcg/mouse
  Degree of swelling, Oral administration: 135%
[1]; oral 10 mcg/mouse
  Degree of swelling, Oral administration: 126%
[1]; Table 7, oral 1 mcg/mouse
  Increase in thickness of footpad (± S.D.): 11.7 ± 1.29 × 0.1 mm
  Degree of swelling: 135%
[1]; Table 7, oral 10 mcg/mouse
  Increase in thickness of footpad (± S.D.): 11.0 ± 1.05 × 0.1 mm
  Degree of swelling: 126%
[1]; intraperitoneal injection or oral administration
  enhancement of cell-mediated immunity compared with bestatin: enhances the cell-mediated immunity as much as or much more than bestatin
[1]; oral 0.01 to 10 mcg/mouse versus bestatin oral 1 to 10 mcg/mouse
  immunopotentiating activity compared with bestatin: exhibits the immunopotentiating activity as high as bestatin
[1]; oral, dosages lower than 1 mcg/mouse
  enhancement of D.T.H. response compared with bestatin: enhances the D.T.H. response much more than bestatin
[1]; oral, low dosage of 0.01 mcg/mouse
  enhancement of cell-mediated immunity: active to enhance the cell-mediated immunity
ICR-strain mice
  acute toxicity: tolerance of intraperitoneal administration: tolerated
Solubility in water
  solubility in water: soluble in water
